Assay results as given in ChEMBL document CHEMBL1201862, “PubChem BioAssay data set” (2004).
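Test compounds were applied to cells in 96-well plates for 48 hours at 5 doses. GI50 is the concentration that inhibits growth by half.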 Calls of active or inactive are those of the source. Rule as the data show it: active = GI50 up to about 1.1 µM and inactive = higher.

Columns and labels:
Experiment in all cases: growth of human tumour cells (NCI), 48 h
786-0 = tested on: 786-0
A549 = tested on: A549
ACHN = tested on: ACHN
CCRF-CEM = tested on: CCRF-CEM
COLO 205 = tested on: COLO 205
DLD-1 = tested on: DLD-1
DMS-114 = tested on: DMS-114
DMS-273 = tested on: DMS-273
EKVX = tested on: EKVX
HCC 2998 = tested on: HCC 2998
HCT-116 = tested on: HCT-116
HCT-15 = tested on: HCT-15
HL-60 = tested on: HL-60
HOP-18 = tested on: HOP-18
HOP-62 = tested on: HOP-62
HOP-92 = tested on: HOP-92
HT-29 = tested on: HT-29
IGROV-1 = tested on: IGROV-1
KM-20L2 = tested on: KM-20L2
KM12 = tested on: KM12
LOX IMVI = tested on: LOX IMVI
LXFL 529 = tested on: LXFL 529
M14 = tested on: M14
M19-MEL = tested on: M19-MEL
Malme-3M = tested on: Malme-3M
NCI-H226 = tested on: NCI-H226
NCI-H23 = tested on: NCI-H23
NCI-H460 = tested on: NCI-H460
NCI-H522 = tested on: NCI-H522
OVCAR-3 = tested on: OVCAR-3
OVCAR-4 = tested on: OVCAR-4
OVCAR-5 = tested on: OVCAR-5
OVCAR-8 = tested on: OVCAR-8
RXF 393 = tested on: RXF 393
RXF 631 = tested on: RXF 631
SF-268 = tested on: SF-268
SF-295 = tested on: SF-295
SF-539 = tested on: SF-539
SK-MEL-28 = tested on: SK-MEL-28
SK-MEL-2 = tested on: SK-MEL-2
SK-MEL-5 = tested on: SK-MEL-5
SK-OV-3 = tested on: SK-OV-3
SN12C = tested on: SN12C
SNB-19 = tested on: SNB-19
SNB-75 = tested on: SNB-75
SNB-78 = tested on: SNB-78
SW-620 = tested on: SW-620
TK-10 = tested on: TK-10
U-251 = tested on: U-251
UACC-257 = tested on: UACC-257
UACC-62 = tested on: UACC-62
UO-31 = tested on: UO-31
XF498 = tested on: XF498
CAKI-1 = tested on: CAKI-1
K562 = tested on: K562
MOLT-4 = tested on: MOLT-4
RPMI-8226 = tested on: RPMI-8226
SR = tested on: SR

## CCCCCCCCCCCCCCCC(=O)NCC(OCC)OCC
786-0
  GI50: > 100 µM (inactive)
A549
  GI50: > 100 µM (inactive)
ACHN
  GI50: > 100 µM (inactive)
CCRF-CEM
  GI50: > 100 µM (inactive)
COLO 205
  GI50: > 100 µM (inactive)
DLD-1
  GI50: > 100 µM (inactive)
DMS-114
  GI50: > 100 µM (inactive)
DMS-273
  GI50: > 100 µM (inactive)
EKVX
  GI50: > 100 µM (inactive)
HCC 2998
  GI50: > 100 µM (inactive)
HCT-116
  GI50: > 100 µM (inactive)
HCT-15
  GI50: > 100 µM
HL-60
  GI50: > 100 µM (inactive)
HOP-18
  GI50: > 100 µM (inactive)
HOP-62
  GI50: > 100 µM (inactive)
HOP-92
  GI50: > 100 µM (inactive)
HT-29
  GI50: > 100 µM (inactive)
IGROV-1
  GI50: > 100 µM (inactive)
KM-20L2
  GI50: > 100 µM (inactive)
KM12
  GI50: > 100 µM (inactive)
LOX IMVI
  GI50: > 100 µM (inactive)
LXFL 529
  GI50: > 100 µM (inactive)
M14
  GI50: > 100 µM (inactive)
M19-MEL
  GI50: > 100 µM (inactive)
Malme-3M
  GI50: > 100 µM (inactive)
NCI-H226
  GI50: > 100 µM (inactive)
NCI-H23
  GI50: > 100 µM (inactive)
NCI-H460
  GI50: > 100 µM (inactive)
NCI-H522
  GI50: > 100 µM (inactive)
OVCAR-3
  GI50: > 100 µM (inactive)
OVCAR-4
  GI50: > 100 µM (inactive)
OVCAR-5
  GI50: > 100 µM (inactive)
OVCAR-8
  GI50: > 100 µM (inactive)
RXF 393
  GI50: > 100 µM (inactive)
RXF 631
  GI50: > 100 µM (inactive)
SF-268
  GI50: > 100 µM (inactive)
SF-295
  GI50: > 100 µM (inactive)
SF-539
  GI50: > 100 µM (inactive)
SK-MEL-28
  GI50: > 100 µM (inactive)
SK-MEL-2
  GI50: > 100 µM (inactive)
SK-MEL-5
  GI50: > 100 µM (inactive)
SK-OV-3
  GI50: > 100 µM (inactive)
SN12C
  GI50: > 100 µM (inactive)
SNB-19
  GI50: > 100 µM (inactive)
SNB-75
  GI50: > 100 µM (inactive)
SNB-78
  GI50: > 100 µM (inactive)
SW-620
  GI50: > 100 µM (inactive)
TK-10
  GI50: > 100 µM (inactive)
U-251
  GI50: > 100 µM (inactive)
UACC-257
  GI50: > 100 µM (inactive)
UACC-62
  GI50: > 100 µM (inactive)
UO-31
  GI50: > 100 µM (inactive)
XF498
  GI50: > 100 µM (inactive)

## CC(C)NC(=O)OCc1nnn2c1C(OC(=O)NC(C)C)CC2 (stereo not given)
786-0
  GI50: > 100 µM (inactive)
A549
  GI50: > 100 µM (inactive)
CAKI-1
  GI50: > 100 µM (inactive)
COLO 205
  GI50: > 100 µM (inactive)
DLD-1
  GI50: > 100 µM (inactive)
DMS-114
  GI50: > 100 µM (inactive)
DMS-273
  GI50: > 100 µM (inactive)
EKVX
  GI50: > 100 µM (inactive)
HCC 2998
  GI50: > 100 µM (inactive)
HCT-116
  GI50: > 100 µM (inactive)
HCT-15
  GI50: > 100 µM
HOP-18
  GI50: > 100 µM (inactive)
HOP-92
  GI50: > 100 µM (inactive)
HT-29
  GI50: > 100 µM (inactive)
IGROV-1
  GI50: > 100 µM (inactive)
K562
  GI50: > 100 µM (inactive)
KM-20L2
  GI50: > 100 µM (inactive)
KM12
  GI50: > 100 µM (inactive)
LXFL 529
  GI50: > 100 µM (inactive)
M14
  GI50: > 100 µM (inactive)
M19-MEL
  GI50: > 100 µM (inactive)
MOLT-4
  GI50: > 100 µM (inactive)
Malme-3M
  GI50: > 100 µM (inactive)
NCI-H226
  GI50: > 100 µM (inactive)
NCI-H23
  GI50: > 100 µM (inactive)
NCI-H460
  GI50: > 100 µM (inactive)
NCI-H522
  GI50: > 100 µM (inactive)
OVCAR-3
  GI50: > 100 µM (inactive)
OVCAR-4
  GI50: > 100 µM (inactive)
OVCAR-5
  GI50: > 100 µM (inactive)
OVCAR-8
  GI50: > 100 µM (inactive)
RPMI-8226
  GI50: > 100 µM (inactive)
RXF 393
  GI50: > 100 µM (inactive)
RXF 631
  GI50: > 100 µM (inactive)
SF-295
  GI50: > 100 µM (inactive)
SF-539
  GI50: > 100 µM (inactive)
SK-MEL-28
  GI50: > 100 µM (inactive)
SK-MEL-2
  GI50: > 100 µM (inactive)
SK-MEL-5
  GI50: > 100 µM (inactive)
SK-OV-3
  GI50: > 100 µM (inactive)
SN12C
  GI50: > 100 µM (inactive)
SNB-19
  GI50: > 100 µM (inactive)
SNB-75
  GI50: > 100 µM (inactive)
SNB-78
  GI50: > 100 µM (inactive)
SR
  GI50: > 100 µM (inactive)
SW-620
  GI50: > 100 µM (inactive)
TK-10
  GI50: > 100 µM (inactive)
U-251
  GI50: > 100 µM (inactive)
UACC-257
  GI50: > 100 µM (inactive)
UACC-62
  GI50: > 100 µM (inactive)
UO-31
  GI50: > 100 µM (inactive)
XF498
  GI50: > 100 µM (inactive)
